Measurements taken from patent publication US11512080B2, “CRBN ligands and uses thereof” (Kymera Therapeutics, Inc., priority 2018, dated 2022).

The compounds below were run against His-tagged CRBN-DDB1 complex (Homo sapiens (Human), UniProt Q96SW2) (assay: Time-Resolved Fluorescence Resonance Energy Transfer (TR-FRET) assay). Conditions: competition with Cy5-labeled thalidomide (8 nM), 1 hour at room temperature; read-out: CRBN HTRF IC50.
His-tagged CRBN-DDB1 complex, sequence (Q96SW2 whole entry): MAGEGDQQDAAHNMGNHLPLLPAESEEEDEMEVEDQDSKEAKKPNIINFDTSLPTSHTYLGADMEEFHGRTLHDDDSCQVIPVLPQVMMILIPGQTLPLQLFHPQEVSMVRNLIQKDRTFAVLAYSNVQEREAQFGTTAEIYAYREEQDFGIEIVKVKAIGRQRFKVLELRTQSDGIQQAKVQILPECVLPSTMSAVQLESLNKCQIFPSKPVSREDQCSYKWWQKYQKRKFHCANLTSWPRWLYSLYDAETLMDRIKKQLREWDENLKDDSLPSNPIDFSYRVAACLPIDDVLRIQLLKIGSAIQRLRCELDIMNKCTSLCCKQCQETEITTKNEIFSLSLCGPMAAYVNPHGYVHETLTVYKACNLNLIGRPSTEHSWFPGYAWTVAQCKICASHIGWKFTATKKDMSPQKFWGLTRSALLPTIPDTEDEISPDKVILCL
His-tagged CRBN-DDB1 complex, sequence (Q16531 whole entry partner): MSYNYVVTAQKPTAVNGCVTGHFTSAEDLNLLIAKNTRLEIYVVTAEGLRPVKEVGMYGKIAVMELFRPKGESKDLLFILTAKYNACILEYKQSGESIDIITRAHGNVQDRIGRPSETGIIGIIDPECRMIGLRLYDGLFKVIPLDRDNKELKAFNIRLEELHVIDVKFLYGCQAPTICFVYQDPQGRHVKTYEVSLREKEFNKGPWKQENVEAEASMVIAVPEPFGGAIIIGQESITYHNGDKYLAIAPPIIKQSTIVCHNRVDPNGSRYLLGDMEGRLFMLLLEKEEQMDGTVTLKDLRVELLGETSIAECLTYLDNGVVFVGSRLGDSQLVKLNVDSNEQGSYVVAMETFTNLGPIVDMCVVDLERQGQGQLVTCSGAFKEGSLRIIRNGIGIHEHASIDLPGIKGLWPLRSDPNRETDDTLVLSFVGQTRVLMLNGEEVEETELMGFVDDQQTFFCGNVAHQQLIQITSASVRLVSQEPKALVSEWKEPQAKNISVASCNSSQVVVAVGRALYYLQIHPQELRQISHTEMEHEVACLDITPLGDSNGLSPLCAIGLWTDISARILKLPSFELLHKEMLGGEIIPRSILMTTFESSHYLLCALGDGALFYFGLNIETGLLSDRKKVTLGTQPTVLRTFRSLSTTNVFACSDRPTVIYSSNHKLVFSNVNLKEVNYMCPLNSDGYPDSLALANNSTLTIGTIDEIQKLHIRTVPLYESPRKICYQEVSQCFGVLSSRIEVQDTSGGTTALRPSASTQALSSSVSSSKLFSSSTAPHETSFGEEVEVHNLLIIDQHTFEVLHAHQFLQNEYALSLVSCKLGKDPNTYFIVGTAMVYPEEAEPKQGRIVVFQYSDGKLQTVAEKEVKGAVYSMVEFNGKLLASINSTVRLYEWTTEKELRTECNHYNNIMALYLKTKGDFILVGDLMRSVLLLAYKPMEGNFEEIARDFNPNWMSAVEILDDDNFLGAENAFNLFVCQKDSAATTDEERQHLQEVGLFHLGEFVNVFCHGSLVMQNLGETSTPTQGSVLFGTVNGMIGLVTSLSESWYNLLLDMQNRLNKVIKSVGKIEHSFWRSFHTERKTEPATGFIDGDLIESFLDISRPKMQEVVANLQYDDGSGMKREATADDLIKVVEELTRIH
Assay type: binding
Method: The mixture were incubated at room temperature for 1 hour. […] Quantitative loss of FRET efficiency as a function of compound concentrations was fitted by a four-parameter Logistic Function using GraphPad Prism 7.0 and the IC50 values were reported for each compound.
The compound numbers correspond to the compound numbers in Table 1.
For `O=C1CCC(Sc2nc3ccc(Cl)cc3[nH]2)C(=O)N1` (centres unmarked) [Compound I-8], the IC50 was 1 to 10 µM. `O=c1ccn(-c2ccccn2)c(=O)[nH]1` [Compound I-28, 1-(pyridin-2-yl)pyrimidine-2,4(1H,3H)-dione] gave an IC50 of over 100 µM. `Cn1c(=O)n(C2SC(=O)NC2=O)c2ccccc21` (centres unmarked) [Compound I-39] was tested, and the IC50 was over 100 µM. In the case of `Cn1cc(C2SC(=O)NC2=O)c2ccccc21` (centres unmarked) [Compound I-71, 5-(1-Methyl-1H-indol-3-yl)thiazolidine-2,4-dione], the IC50 is reported as over 100 µM. For `Cn1ccnc1SC1CCC(=O)NC1=O` (centres unmarked) [Compound I-73], the IC50 was over 100 µM. With `Cn1ccc(N2CCC(=O)NC2=O)n1` [Compound I-76] the IC50 was over 100 µM. For `O=C1CN(C2SC(=O)NC2=O)CCN1` (centres unmarked) [Compound I-77, 5-(3-Oxopiperazin-1-yl)thiazolidine-2,4-dione], the IC50 was over 100 µM. In the case of `Cn1nc(C2SC(=N)NC2=O)c2ccccc21` (centres unmarked) [Compound I-81, 2-Imino-5-(1-methyl-1H-indazol-3-yl)thiazolidin-4-one], the IC50 is reported as over 100 µM. Work on `O=C1NC(=O)C(N2CCN(c3ccccc3)CC2=O)S1` (centres unmarked) [Compound I-82, 5-(2-Oxo-4-phenylpiperazin-1-yl)thiazolidine-2,4-dione] yielded an IC50 of over 100 µM. For `O=C1CCC(SC2CCCCC2)C(=O)N1` (centres unmarked) [Compound I-116], the IC50 was over 100 µM.

Same assay, conditions: read-out: CRBN HTRF IC50
Compound `O=C1CCC(Sc2ccccc2)C(=O)N1` (centres unmarked) [Compound I-4, 3-(phenylthio)piperidine-2,6-dione] has an IC50 of 10 to 100 µM. In the case of `O=C1CCC(Sc2ccccn2)C(=O)N1` (centres unmarked) [Compound I-6, 3-(pyridin-2-ylthio)piperidine-2,6-dione], the IC50 is reported as 10 to 100 µM. For `O=C1CCC(Sc2ccc(F)cc2)C(=O)N1` (centres unmarked) [Compound I-7], the IC50 was 10 to 100 µM. For `COc1ccc(SC2CCC(=O)NC2=O)cc1` (centres unmarked) [Compound I-9, 3-((4-methoxyphenyl)thio)piperidine-2,6-dione], the IC50 was 10 to 100 µM. Compound `O=C1CCC(Sc2ccc(C(=O)O)cc2)C(=O)N1` (centres unmarked) [Compound I-10, 4-((2,6-dioxopiperidin-3-yl)thio)benzoic acid] has an IC50 of 10 to 100 µM. `CCn1c(SC2CCC(=O)NC2=O)nc2ccccc21` (centres unmarked) [Compound I-11, 3-((1-ethyl-1H-benzo[d]imidazol-2-yl)thio)piperidine-2,6-dione] showed an IC50 of 1 to 10 µM. `Cn1c(SC2CCC(=O)NC2=O)nc2ccccc21` (centres unmarked) [Compound I-12, 3-(1-Methyl-1H-benzoimidazol-2-ylsulfanyl)-piperidine-2,6-dione] gave an IC50 of 10 to 100 µM. With `CC(=O)Nc1ccc(SC2CCC(=O)NC2=O)cc1` (centres unmarked) [Compound I-13, N-[4-(2,6-Dioxo-piperidin-3-ylsulfanyl)-phenyl]-acetamide] the IC50 was 10 to 100 µM. `Nc1ccc(SC2CCC(=O)NC2=O)cc1` (centres unmarked) [Compound I-14, 3-(4-Amino-phenylsulfanyl)-piperidine-2,6-dione] showed an IC50 of 10 to 100 µM. For `O=C1CCC(Sc2ccc(Cl)cc2)C(=O)N1` (centres unmarked) [Compound I-15, 3-((4-chlorophenyl)thio)piperidine-2,6-dione], the IC50 was 10 to 100 µM. `O=C1CCC(Sc2ccc(C(F)(F)F)cc2)C(=O)N1` (centres unmarked) [Compound I-16, 3-((4-(trifluoromethyl)phenyl)thio)piperidine-2,6-dione] gave an IC50 of 10 to 100 µM. With `CCc1ccc(SC2CCC(=O)NC2=O)cc1` (centres unmarked) [Compound I-17, 3-((4-ethylphenyl)thio)piperidine-2,6-dione] the IC50 was 1 to 10 µM. In the case of `O=C1CCN(Cc2ccccc2)C(=O)N1` [Compound I-24, 1-Benzyl-dihydro-pyrimidine-2,4-dione], the IC50 is reported as 10 to 100 µM. Work on `O=c1ccn(-c2ccccc2)c(=O)[nH]1` [Compound I-27, 1-phenylpyrimidine-2,4(1H,3H)-dione] yielded an IC50 of 10 to 100 µM. `O=C1NC(=O)C(N2CC(c3ccccc3)OC2=O)S1` (centres unmarked) [Compound I-38] gave an IC50 of 10 to 100 µM. Work on `O=C1CCC(Sc2ccncc2)C(=O)N1` (centres unmarked) [Compound I-62] yielded an IC50 of 10 to 100 µM. `CC(C)(C)n1c(SC2CCC(=O)NC2=O)nc2ccccc21` (centres unmarked) [Compound I-63, 3-((1-(tert-Butyl)-1H-benzo[d]imidazol-2-yl)thio)piperidine-2,6-dione] was tested, and the IC50 was 10 to 100 µM. `CCc1ccc([S+]([O-])C2CCC(=O)NC2=O)cc1` (centres unmarked) [Compound I-64, 3-((4-ethylphenyl)sulfinyl)piperidine-2,6-dione] showed an IC50 of 10 to 100 µM. With `CCc1ccc(S(=O)(=O)C2CCC(=O)NC2=O)cc1` (centres unmarked) [Compound I-65, 3-((4-ethylphenyl)sulfonyl)piperidine-2,6-dione] the IC50 was 10 to 100 µM. For `Cc1ccc(SC2CCC(=O)NC2=O)cc1` (centres unmarked) [Compound I-66], the IC50 was 10 to 100 µM. For `N#Cc1ccc(SC2CCC(=O)NC2=O)cc1` (centres unmarked) [Compound I-67, 4-((2,6-Dioxopiperidin-3-yl)thio)benzonitrile], the IC50 was 10 to 100 µM. Compound `CC(C)c1ccc(SC2CCC(=O)NC2=O)cc1` (centres unmarked) [Compound I-68] has an IC50 of 1 to 10 µM. `Cc1cccc(SC2CCC(=O)NC2=O)c1` (centres unmarked) [Compound I-69] showed an IC50 of 10 to 100 µM. `O=C1CCC(Sc2nc3ccccc3n2C2CC2)C(=O)N1` (centres unmarked) [Compound I-70, 3-((1-Cyclopropyl-1H-benzo[d]imidazol-2-yl)thio)piperidine-2,6-dione] gave an IC50 of 10 to 100 µM. Work on `O=C1CCC(Sc2cccs2)C(=O)N1` (centres unmarked) [Compound I-72] yielded an IC50 of 10 to 100 µM. For `O=C1CCC(Sc2ccccc2O)C(=O)N1` (centres unmarked) [Compound I-74], the IC50 was 1 to 10 µM. `COc1ccccc1SC1CCC(=O)NC1=O` (centres unmarked) [Compound I-75] was tested, and the IC50 was 10 to 100 µM. For `CCc1ccc(OC2CCC(=O)NC2=O)cc1` (centres unmarked) [Compound I-78, 3-(4-ethylphenoxy)piperidine-2,6-dione], the IC50 was 1 to 10 µM. `Cc1ccc(SC2CCC(=O)NC2=O)c(C)c1` (centres unmarked) [Compound I-79] was tested, and the IC50 was 1 to 10 µM. Work on `Cc1occc1SC1CCC(=O)NC1=O` (centres unmarked) [Compound I-80] yielded an IC50 of 10 to 100 µM. With `O=C1CCC(Sc2ncccn2)C(=O)N1` (centres unmarked) [Compound I-83] the IC50 was 10 to 100 µM. Work on `CCCCc1ccc(SC2CCC(=O)NC2=O)cc1` (centres unmarked) [Compound I-84] yielded an IC50 of 1 to 10 µM. Work on `CN(C)c1ccc(SC2CCC(=O)NC2=O)cc1` (centres unmarked) [Compound I-85] yielded an IC50 of 1 to 10 µM. Compound `CCOc1cccc(SC2CCC(=O)NC2=O)c1` (centres unmarked) [Compound I-86] has an IC50 of 1 to 10 µM. `COc1cccc(SC2CCC(=O)NC2=O)c1` (centres unmarked) [Compound I-87] showed an IC50 of 1 to 10 µM. Compound `Cn1nc(N2CCC(=O)NC2=O)cc1-c1ccccc1` [Compound I-88, 1-(1-Methyl-5-phenyl-1H-pyrazol-3-yl)dihydropyrimidine-2,4(1H,3H)-dione] has an IC50 of 10 to 100 µM. `Cc1cc(C)nc(SC2CCC(=O)NC2=O)n1` (centres unmarked) [Compound I-89] showed an IC50 of 10 to 100 µM. Compound `O=C1CCC(Sc2ccc(Cl)cn2)C(=O)N1` (centres unmarked) [Compound I-90] has an IC50 of 1 to 10 µM. With `O=C1CCC(Sc2cc(C(F)(F)F)cc(C(F)(F)F)c2)C(=O)N1` (centres unmarked) [Compound I-92] the IC50 was 10 to 100 µM. `O=C1CCC(Sc2nc(=O)cc(-c3ccccc3)[nH]2)C(=O)N1` (centres unmarked) [Compound I-93] was tested, and the IC50 was 10 to 100 µM. For `O=C1CCC(Sc2nc3ccc(Cl)cc3[nH]2)C(=O)N1` (centres unmarked) [Compound I-94], the IC50 was 1 to 10 µM. In the case of `Cc1cc(O)nc(SC2CCC(=O)NC2=O)n1` (centres unmarked) [Compound I-95, 3-((4-hydroxy-6-methylpyrimidin-2-yl)thio)piperidine-2,6-dione], the IC50 is reported as 10 to 100 µM. In the case of `O=C1CCC(Sc2nc3ccccc3[nH]2)C(=O)N1` (centres unmarked) [Compound I-96], the IC50 is reported as 10 to 100 µM. `O=C1CCC(Sc2cccc3cccnc23)C(=O)N1` (centres unmarked) [Compound I-97] was tested, and the IC50 was 1 to 10 µM. `O=C1CCC(Sc2ccc(C(F)(F)F)cn2)C(=O)N1` (centres unmarked) [Compound I-98] was tested, and the IC50 was 10 to 100 µM. Work on `O=C1CCC(Sc2ccccc2OC(F)(F)F)C(=O)N1` (centres unmarked) [Compound I-99] yielded an IC50 of 1 to 10 µM. `O=C1CCC(Sc2cc(Cl)ccc2Cl)C(=O)N1` (centres unmarked) [Compound I-101] showed an IC50 of 1 to 10 µM. Compound `O=C1CCC(Sc2cc(Cl)c(Cl)cc2Cl)C(=O)N1` (centres unmarked) [Compound I-102] has an IC50 of 10 to 100 µM. In the case of `O=C1CCC(Oc2ccccc2)C(=O)N1` (centres unmarked) [Compound I-103], the IC50 is reported as 10 to 100 µM. Work on `O=C1CCC(Sc2ccc(Br)cn2)C(=O)N1` (centres unmarked) [Compound I-104] yielded an IC50 of 1 to 10 µM. For `Cn1ccc(CN2CCC(=O)NC2=O)n1` [Compound I-106], the IC50 was 10 to 100 µM. `O=C1CCC(Sc2cccc(Br)c2)C(=O)N1` (centres unmarked) [Compound I-108, 3-((3-Bromophenyl)thio)piperidine-2,6-dione] gave an IC50 of 1 to 10 µM. Work on `O=C1CCC(Sc2ccccc2C(F)(F)F)C(=O)N1` (centres unmarked) [Compound I-109] yielded an IC50 of 10 to 100 µM. In the case of `O=C1CCC(Sc2cccc[n+]2[O-])C(=O)N1` (centres unmarked) [Compound I-110], the IC50 is reported as 1 to 10 µM. For `O=C1CCC(Sc2cc(C(=O)O)ccn2)C(=O)N1` (centres unmarked) [Compound I-111], the IC50 was 1 to 10 µM. Work on `O=C1CCC(Sc2ccc(CO)cc2)C(=O)N1` (centres unmarked) [Compound I-112] yielded an IC50 of 10 to 100 µM. `Nc1cc(=O)nc(SC2CCC(=O)NC2=O)[nH]1` (centres unmarked) [Compound I-113] gave an IC50 of 10 to 100 µM. `O=C1CCC(Sc2ccc(F)c(F)c2)C(=O)N1` (centres unmarked) [Compound I-114] showed an IC50 of 10 to 100 µM. Work on `CC(C)(C)c1ccc(OC2CCC(=O)NC2=O)cc1` (centres unmarked) [Compound I-115] yielded an IC50 of 1 to 10 µM. With `N#Cc1ccccc1SC1CCC(=O)NC1=O` (centres unmarked) [Compound I-117] the IC50 was 10 to 100 µM. `Cn1c(=O)c(C2SC(=O)NC2=O)cc2ccccc21` (centres unmarked) [Compound I-118, 5-(1-methyl-2-oxo-1,2-dihydroquinolin-3-yl)thiazolidine-2,4-dione] gave an IC50 of 10 to 100 µM. `O=C1CCC(Oc2ccc3ccccc3c2)C(=O)N1` (centres unmarked) [Compound I-119] was tested, and the IC50 was 1 to 10 µM. `Nc1cc(C(F)(F)F)ccc1SC1CCC(=O)NC1=O` (centres unmarked) [Compound I-120] gave an IC50 of 10 to 100 µM. `CCc1cccc(SC2CCC(=O)NC2=O)c1` (centres unmarked) [Compound I-121, 3-((3-ethylphenyl)thio)piperidine-2,6-dione] was tested, and the IC50 was 1 to 10 µM. `O=C1CCC(Sc2cccc(Cl)c2)C(=O)N1` (centres unmarked) [Compound I-122] was tested, and the IC50 was 1 to 10 µM. `O=C1CCC(Sc2cccc(C(=O)O)c2)C(=O)N1` (centres unmarked) [Compound I-123] was tested, and the IC50 was 10 to 100 µM. `CCCCc1ccc(OC2CCC(=O)NC2=O)cc1` (centres unmarked) [Compound I-124] showed an IC50 of 1 to 10 µM. Compound `CN(C)c1ccc(OC2CCC(=O)NC2=O)cc1` (centres unmarked) [Compound I-125] has an IC50 of 1 to 10 µM. Work on `O=C1CCC(Sc2ncccc2C(=O)O)C(=O)N1` (centres unmarked) [Compound I-126] yielded an IC50 of 1 to 10 µM. For `O=C1CCC(Sc2cccc(CO)c2)C(=O)N1` (centres unmarked) [Compound I-127, 3-((3-(Hydroxymethyl)phenyl)thio)piperidine-2,6-dione], the IC50 was 10 to 100 µM.
